Results as given in ChEMBL document CHEMBL1201862, “PubChem BioAssay data set” (2004).
Activity calls are given as the source filed them.

Key:
[1] = biological target: Sphingosine 1-phosphate receptor 2 (Homo sapiens, UniProt O95136); experiment: Dose Response Cell Based Assay for Antagonists of the S1P2 Receptor. [Related pubchem assays: 856, 736 ]; type: functional
[2] = biological target: Luciferin 4-monooxygenase (Photinus pyralis, UniProt P08659); experiment: Counter Screen for Luciferase-based Assay Positives. [Related pubchem assays: 620, 618, 411 ]
Sequence of Luciferin 4-monooxygenase (P08659 whole entry): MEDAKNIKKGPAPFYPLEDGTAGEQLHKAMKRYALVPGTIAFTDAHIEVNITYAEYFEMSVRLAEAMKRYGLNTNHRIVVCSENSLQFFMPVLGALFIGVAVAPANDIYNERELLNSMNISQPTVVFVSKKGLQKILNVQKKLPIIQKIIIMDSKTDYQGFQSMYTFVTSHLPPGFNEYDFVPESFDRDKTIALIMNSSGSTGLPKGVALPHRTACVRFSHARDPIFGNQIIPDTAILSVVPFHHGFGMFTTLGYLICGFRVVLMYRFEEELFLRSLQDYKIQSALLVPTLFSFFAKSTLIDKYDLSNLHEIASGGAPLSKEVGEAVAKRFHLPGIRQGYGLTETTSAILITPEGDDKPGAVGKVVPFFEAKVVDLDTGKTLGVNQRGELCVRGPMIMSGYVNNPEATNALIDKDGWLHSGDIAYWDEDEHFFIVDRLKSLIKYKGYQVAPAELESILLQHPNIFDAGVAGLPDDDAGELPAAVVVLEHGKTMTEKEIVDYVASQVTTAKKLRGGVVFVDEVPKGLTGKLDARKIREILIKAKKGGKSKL

HT-1080 = experiment: cytotoxicity in HT1080 fibrosarcoma cells, cell-based, fluorescence readout (AID 620); type: functional; details: Homo sapiens
[3] = biological target: T1, Sphingosine 1-phosphate receptor 4 (Homo sapiens, UniProt O95977); experiment: Late stage fluorescence dose response cell-based screening assay for antagonists of the Sphingosine 1-Phosphate Receptor 4 (S1P4). [Related pubchem assays: 1524 (Confirmation screen (S1P4 antagonists).), 1510 (Primary screen (S1P4 antagonists).), 1853 (Summary AID (S1P4 antagonists).), 1692 (Dose response screen (S1P4 antagonists).)]; type: functional
T1 sequence (O95977 whole entry): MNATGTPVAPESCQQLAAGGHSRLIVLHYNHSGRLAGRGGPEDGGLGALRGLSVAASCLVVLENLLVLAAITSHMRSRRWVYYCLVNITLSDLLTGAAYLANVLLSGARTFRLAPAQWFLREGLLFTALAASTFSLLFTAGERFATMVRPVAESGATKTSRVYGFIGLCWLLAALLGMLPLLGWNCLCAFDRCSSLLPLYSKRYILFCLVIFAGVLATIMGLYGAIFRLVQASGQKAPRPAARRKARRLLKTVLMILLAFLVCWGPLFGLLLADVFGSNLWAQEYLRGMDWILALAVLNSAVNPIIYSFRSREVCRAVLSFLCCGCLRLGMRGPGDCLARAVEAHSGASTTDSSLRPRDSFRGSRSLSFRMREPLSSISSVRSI

[4] = biological target: T1, Sphingosine 1-phosphate receptor 4; experiment: Fluorescence dose response cell-based high throughput screening assay for antagonists of the Sphingosine 1-Phosphate Receptor 4 (S1P4). [Related pubchem assays: 1524 (Confirmation in triplicates.), 1510 (Primary screen.)]; type: functional
[5] = biological target: Sphingosine 1-phosphate receptor 1 (Homo sapiens, UniProt P21453); type: functional;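 also: Tango beta-arrestin reporter U2OS cells stimulated with S1P near its EC80; inhibitor potency meaning antagonism of receptor activation by the natural agonist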
Sequence of Sphingosine 1-phosphate receptor 1 (P21453 whole entry): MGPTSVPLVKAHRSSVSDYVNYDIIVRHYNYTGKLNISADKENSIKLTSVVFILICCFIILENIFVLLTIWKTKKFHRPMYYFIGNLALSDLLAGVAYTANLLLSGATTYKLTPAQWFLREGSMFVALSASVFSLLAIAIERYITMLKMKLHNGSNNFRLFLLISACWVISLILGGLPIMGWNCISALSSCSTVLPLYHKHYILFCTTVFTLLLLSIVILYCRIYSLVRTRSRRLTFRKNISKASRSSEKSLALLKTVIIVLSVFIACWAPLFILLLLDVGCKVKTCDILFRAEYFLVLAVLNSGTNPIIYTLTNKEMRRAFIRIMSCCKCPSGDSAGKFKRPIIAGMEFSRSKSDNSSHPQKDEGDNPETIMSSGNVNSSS

[6] = biological target: T2, Replicative DNA helicase DnaB (Mycobacterium tuberculosis, UniProt P9WMR3); experiment: DnaB intein splicing inhibitors, dose response, biochemical, cell-free fluorescence (AID 449749); type: functional
T2 sequence (P9WMR3 whole entry): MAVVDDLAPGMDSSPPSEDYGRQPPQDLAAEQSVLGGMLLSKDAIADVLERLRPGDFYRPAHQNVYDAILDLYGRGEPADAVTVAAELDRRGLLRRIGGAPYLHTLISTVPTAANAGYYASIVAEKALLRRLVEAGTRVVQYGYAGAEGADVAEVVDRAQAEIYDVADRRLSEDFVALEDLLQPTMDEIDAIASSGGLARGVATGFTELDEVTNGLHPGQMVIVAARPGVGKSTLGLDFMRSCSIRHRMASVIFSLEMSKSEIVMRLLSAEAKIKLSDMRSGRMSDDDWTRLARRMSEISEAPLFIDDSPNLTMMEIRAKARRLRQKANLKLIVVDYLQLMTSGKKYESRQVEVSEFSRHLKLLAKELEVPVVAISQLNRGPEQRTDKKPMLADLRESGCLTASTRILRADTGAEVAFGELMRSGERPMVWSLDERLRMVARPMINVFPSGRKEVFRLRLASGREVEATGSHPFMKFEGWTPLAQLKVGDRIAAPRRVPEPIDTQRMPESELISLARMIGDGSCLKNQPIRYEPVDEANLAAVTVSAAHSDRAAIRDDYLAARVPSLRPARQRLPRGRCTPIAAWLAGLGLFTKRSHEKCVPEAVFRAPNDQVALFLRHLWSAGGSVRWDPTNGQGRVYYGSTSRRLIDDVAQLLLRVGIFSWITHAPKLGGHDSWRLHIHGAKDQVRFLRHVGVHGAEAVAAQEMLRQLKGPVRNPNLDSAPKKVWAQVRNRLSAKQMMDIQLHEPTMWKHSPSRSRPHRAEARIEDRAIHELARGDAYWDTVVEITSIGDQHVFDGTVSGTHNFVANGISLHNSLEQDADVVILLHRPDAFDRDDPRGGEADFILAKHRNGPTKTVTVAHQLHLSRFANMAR

Protein RecA = biological target: T3, Protein RecA (Mycobacterium tuberculosis, UniProt P9WHJ3); experiment: Fluorescence Cell-Free Homogeneous Dose Retest to Identify Inhibitors of RecA-Intein Splicing Activity. [Related pubchem assays (depositor defined):AID2097, AID2223, AID489010, AID492950]; type: functional
T3 sequence (P9WHJ3 whole entry): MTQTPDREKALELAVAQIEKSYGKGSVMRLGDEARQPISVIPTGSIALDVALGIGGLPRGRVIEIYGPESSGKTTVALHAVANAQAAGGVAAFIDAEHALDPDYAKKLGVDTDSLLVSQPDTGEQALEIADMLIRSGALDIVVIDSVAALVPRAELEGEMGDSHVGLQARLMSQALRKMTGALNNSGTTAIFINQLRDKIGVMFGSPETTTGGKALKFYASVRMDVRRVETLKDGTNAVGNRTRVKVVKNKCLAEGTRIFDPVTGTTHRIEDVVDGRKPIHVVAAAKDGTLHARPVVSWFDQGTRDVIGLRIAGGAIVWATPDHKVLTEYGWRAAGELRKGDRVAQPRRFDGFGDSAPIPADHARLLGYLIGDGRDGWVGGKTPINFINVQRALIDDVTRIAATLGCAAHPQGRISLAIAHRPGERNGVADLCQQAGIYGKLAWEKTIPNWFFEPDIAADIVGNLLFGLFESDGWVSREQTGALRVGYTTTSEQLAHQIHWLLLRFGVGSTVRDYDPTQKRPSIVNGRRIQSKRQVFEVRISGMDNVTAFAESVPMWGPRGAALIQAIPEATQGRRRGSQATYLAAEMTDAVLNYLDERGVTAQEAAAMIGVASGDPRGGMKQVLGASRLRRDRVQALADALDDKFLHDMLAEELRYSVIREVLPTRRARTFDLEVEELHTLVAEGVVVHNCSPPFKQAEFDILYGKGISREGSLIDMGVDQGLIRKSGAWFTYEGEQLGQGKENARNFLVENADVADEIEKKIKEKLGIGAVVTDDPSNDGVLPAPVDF

[7] = biological target: Diphosphomevalonate decarboxylase (Streptococcus pneumoniae serotype 2 (strain D39 / NCTC 7466), UniProt Q9FD53); experiment: S. pneumoniae DPM-DC inhibition retest, confirmation, biochemical, cuvette format, coupled NADH fluorescence (AID 1028); type: functional
Sequence of Diphosphomevalonate decarboxylase (Q9FD53 whole entry): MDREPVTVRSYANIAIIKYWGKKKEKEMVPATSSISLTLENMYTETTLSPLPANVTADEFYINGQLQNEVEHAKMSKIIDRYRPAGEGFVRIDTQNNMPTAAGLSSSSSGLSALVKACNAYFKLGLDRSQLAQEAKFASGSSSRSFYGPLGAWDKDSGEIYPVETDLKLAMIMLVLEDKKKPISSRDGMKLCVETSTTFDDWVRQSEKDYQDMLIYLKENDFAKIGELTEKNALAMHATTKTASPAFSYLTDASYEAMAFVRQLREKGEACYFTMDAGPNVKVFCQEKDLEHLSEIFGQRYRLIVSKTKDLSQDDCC

Vero = experiment: West Nile virus antiviral activity, cell-based, CPE readout (AID 1621); type: functional; details: Chlorocebus sabaeus
[8] = biological target: T4, Eukaryotic translation initiation factor 2-alpha kinase 3 (Homo sapiens, UniProt Q9NZJ5); experiment: Dose response cell-based high-throughput screening assay to measure PERK inhibition. [Related pubchem assays: 1416 ]; type: functional
T4 sequence (Q9NZJ5 whole entry): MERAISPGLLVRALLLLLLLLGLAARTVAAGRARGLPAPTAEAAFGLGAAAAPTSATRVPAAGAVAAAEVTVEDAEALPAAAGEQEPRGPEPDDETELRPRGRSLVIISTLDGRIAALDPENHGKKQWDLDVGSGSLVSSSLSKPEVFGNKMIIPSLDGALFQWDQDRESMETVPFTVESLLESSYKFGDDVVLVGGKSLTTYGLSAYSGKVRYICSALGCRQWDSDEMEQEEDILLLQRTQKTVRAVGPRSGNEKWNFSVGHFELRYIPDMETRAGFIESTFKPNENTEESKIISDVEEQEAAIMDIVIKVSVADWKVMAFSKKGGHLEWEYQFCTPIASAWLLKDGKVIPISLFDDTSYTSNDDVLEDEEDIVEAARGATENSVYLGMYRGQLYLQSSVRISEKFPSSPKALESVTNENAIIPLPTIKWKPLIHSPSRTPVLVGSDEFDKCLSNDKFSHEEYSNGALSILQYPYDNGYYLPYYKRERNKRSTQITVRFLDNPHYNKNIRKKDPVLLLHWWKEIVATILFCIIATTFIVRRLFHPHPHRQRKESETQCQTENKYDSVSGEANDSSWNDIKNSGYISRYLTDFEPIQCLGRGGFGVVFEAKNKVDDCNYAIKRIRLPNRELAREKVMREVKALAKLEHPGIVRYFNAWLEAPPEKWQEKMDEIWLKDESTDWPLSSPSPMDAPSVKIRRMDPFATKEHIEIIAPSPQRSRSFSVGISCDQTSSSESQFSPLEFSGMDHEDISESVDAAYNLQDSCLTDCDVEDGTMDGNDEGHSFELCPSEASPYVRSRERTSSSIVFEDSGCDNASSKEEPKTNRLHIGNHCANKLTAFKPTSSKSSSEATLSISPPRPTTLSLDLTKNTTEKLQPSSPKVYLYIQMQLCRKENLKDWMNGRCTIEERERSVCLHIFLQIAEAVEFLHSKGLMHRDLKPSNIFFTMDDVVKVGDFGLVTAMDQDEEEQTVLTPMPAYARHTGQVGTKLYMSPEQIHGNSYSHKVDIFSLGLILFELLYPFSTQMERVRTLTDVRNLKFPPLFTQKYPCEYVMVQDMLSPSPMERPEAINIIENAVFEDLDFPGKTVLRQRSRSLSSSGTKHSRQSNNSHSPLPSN

[9] = biological target: T4, Eukaryotic translation initiation factor 2-alpha kinase 3; experiment: Counterscreen assay for PERK inhibitors: Dose response cell-based high throughput screening assay to measure inhibition of PERK at 6 hours. [Related pubchem assays: 1522, 1416 ]; type: functional
[10] = M. tuberculosis growth inhibition, HTS (AID 449762); type: functional
[11] = THP-1 cell cytotoxicity, dose response, cytotoxicity control for non-replicating M. tuberculosis project (AID 489025); type: functional
Genome polyprotein = Genome polyprotein (Hepatitis C virus, UniProt Q2Q167); experiment: HCV core protein dimerization inhibitors, dose response, biochemical, TR-FRET (AID 2159); parameters: species or system Hepacivirus hominis;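 also: blocks dimerization of HCV core protein measured by TR-FRET between tagged core106 pairs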
Sequence of Genome polyprotein (Q2Q167 whole entry): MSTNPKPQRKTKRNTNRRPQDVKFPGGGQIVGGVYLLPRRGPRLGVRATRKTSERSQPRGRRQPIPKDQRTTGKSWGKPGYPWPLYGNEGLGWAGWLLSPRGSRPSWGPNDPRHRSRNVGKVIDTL

[12] = biological target: Induced myeloid leukemia cell differentiation protein Mcl-1 (Homo sapiens, UniProt Q07820); experiment: MCL1-BIM BH3 interaction inhibitors, dose response, biochemical, fluorescence polarization, BIM-BH3 peptide, 1536-well (AID 2217)
Sequence of Induced myeloid leukemia cell differentiation protein Mcl-1 (Q07820 whole entry): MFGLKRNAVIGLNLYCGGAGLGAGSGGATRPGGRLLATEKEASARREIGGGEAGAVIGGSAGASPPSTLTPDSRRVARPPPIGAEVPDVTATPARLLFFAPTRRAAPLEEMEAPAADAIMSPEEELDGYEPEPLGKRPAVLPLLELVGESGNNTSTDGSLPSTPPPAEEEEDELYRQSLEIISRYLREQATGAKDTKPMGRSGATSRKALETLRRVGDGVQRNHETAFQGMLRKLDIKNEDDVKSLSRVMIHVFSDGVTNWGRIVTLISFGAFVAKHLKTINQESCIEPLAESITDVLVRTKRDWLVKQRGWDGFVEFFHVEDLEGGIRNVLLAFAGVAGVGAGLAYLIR

Bcl-2-like protein 1 = Bcl-2-like protein 1 (Homo sapiens, UniProt Q07817); experiment: BCL-XL inhibitors, dose response, selectivity assay for MCL1 inhibitor project, biochemical, fluorescence polarization, 1536-well (AID 2218)
Sequence of Bcl-2-like protein 1 (Q07817 whole entry): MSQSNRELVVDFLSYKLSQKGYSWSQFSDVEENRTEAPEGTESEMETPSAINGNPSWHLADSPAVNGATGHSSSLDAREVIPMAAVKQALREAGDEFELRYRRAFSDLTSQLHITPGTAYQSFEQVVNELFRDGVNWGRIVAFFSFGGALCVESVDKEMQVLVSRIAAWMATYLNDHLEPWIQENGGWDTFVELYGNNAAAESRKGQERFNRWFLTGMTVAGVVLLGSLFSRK

[13] = biological target: DNA (cytosine-5)-methyltransferase 1 (Homo sapiens, UniProt P26358); experiment: DNMT1 methyltransferase inhibitors, confirmation, biochemical, fluorescent molecular beacon (AID 602386); type: functional
Sequence of DNA (cytosine-5)-methyltransferase 1 (P26358 whole entry): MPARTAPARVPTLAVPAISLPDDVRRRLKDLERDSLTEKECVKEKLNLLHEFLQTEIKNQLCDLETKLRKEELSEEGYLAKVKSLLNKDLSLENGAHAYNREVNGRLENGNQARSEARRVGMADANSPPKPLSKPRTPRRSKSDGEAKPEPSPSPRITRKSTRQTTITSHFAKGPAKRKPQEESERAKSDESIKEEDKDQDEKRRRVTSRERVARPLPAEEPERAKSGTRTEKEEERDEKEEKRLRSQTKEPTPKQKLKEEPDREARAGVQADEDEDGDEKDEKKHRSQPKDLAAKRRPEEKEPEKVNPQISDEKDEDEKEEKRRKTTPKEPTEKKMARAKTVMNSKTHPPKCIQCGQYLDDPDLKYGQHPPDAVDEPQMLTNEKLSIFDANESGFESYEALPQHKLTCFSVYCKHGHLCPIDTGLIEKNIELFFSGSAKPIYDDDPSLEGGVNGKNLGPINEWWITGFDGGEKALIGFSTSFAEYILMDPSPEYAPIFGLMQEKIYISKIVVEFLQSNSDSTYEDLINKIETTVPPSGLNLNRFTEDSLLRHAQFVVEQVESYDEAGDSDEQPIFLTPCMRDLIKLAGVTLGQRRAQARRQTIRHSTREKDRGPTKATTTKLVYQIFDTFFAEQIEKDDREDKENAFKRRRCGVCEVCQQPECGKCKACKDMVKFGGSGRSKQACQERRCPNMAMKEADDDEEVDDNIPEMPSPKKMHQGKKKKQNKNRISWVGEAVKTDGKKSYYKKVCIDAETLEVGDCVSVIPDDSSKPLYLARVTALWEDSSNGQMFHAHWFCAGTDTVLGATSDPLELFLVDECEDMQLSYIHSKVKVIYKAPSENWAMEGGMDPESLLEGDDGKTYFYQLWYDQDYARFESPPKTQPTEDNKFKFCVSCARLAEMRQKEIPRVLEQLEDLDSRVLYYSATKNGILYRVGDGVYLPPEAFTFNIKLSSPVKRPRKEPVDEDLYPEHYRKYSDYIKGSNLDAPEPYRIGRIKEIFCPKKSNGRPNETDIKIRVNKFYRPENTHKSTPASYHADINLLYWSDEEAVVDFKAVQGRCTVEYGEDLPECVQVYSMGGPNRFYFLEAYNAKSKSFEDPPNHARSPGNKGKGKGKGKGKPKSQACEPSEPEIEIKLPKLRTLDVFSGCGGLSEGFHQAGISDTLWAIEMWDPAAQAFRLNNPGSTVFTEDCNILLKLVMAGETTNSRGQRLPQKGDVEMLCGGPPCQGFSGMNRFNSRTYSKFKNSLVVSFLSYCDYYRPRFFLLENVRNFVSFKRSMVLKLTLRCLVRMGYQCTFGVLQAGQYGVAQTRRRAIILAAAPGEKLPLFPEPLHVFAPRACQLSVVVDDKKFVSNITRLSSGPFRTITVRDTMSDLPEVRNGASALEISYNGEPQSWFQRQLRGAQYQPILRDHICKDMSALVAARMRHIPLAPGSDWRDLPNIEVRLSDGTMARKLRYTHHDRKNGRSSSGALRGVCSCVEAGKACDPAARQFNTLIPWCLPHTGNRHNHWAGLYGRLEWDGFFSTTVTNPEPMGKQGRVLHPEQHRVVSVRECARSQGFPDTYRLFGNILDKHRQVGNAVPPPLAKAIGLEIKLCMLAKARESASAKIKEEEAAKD

[14] = biological target: T5, Small ubiquitin-related modifier 1 (Homo sapiens, UniProt P63165); experiment: inhibitors of SUMO1 peptide binding, dose response, biochemical, fluorescence polarization, uHTS hits (AID 624382); type: functional; details: read-out: IC50_Mean
T5 sequence (P63165 whole entry): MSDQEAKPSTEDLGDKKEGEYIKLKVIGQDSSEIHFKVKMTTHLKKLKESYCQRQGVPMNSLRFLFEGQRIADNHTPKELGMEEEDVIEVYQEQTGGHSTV

[15] = biological target: T5, Small ubiquitin-related modifier 1; experiment: inhibitors of SUMO1 partner interactions, dose response, biochemical, FRET (AID 624383); type: functional; details: read-out: IC50_Mean
Albumin = Albumin (Bos taurus, UniProt P02769); experiment: Counterscreen for inhibitors of T-cell receptor (TCR)-CD3 interaction: Fluorescence-based biochemical high throughput dose response assay to identify inhibitors of T-cell receptor (TCR)-CD3 interaction using a TAMRA-labeled BSA probe.; type: functional
Sequence of Albumin (P02769 whole entry): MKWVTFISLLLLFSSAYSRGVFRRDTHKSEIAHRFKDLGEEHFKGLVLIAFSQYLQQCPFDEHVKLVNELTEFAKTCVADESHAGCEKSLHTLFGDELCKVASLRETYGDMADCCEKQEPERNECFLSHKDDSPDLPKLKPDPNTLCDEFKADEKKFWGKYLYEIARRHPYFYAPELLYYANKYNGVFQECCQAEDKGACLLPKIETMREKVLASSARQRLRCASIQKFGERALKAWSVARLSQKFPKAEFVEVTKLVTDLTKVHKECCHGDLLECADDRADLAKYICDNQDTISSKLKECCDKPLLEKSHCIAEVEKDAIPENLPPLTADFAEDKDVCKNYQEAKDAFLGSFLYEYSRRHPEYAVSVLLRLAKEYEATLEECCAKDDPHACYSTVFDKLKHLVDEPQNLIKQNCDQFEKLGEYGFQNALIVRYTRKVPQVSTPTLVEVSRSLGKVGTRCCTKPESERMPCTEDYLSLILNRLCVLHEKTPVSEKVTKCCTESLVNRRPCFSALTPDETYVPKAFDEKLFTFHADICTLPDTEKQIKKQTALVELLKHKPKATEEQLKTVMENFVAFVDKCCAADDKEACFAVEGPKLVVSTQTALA

Danio rerio = experiment: In Vivo Angiogenesis Dose-Response Confirmation. [Related pubchem assays: 732 (Assay preceding this confirmatory assay.)]; type: functional, organism-based

Sequence of Sphingosine 1-phosphate receptor 2 (O95136 whole entry): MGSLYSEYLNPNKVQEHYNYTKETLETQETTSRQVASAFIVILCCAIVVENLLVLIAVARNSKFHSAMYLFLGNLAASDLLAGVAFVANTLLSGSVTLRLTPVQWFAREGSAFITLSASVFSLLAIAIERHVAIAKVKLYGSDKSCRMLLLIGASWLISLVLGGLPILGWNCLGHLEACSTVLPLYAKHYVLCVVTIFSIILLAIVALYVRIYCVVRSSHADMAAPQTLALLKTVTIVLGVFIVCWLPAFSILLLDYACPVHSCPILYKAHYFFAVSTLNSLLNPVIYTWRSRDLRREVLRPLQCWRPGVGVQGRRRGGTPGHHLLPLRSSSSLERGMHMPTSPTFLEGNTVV

**Q.** Which results are given for `COc1ccc(NC(=O)/C(Cl)=C(/Cl)S(=O)(=O)Cc2ccc(C)cc2)cn1`?
**A.** IC50 [1]: 1.48 µM (active); EC50 [2]: < 0.2 µM (active); EC50 (HT-1080): 18.8 µM (active); IC50 [3]: 15.4 µM (not active); IC50 [4]: 0.564 µM (active); IC50 [5]: 7.07 µM (active); AC50 [6]: 4.27 µM (active); EC50 (Protein RecA): 2.71 µM (active)

**Q.** For `O=C(c1ccc(-n2sc3ccccc3c2=O)cc1)N1CCCCC1`, which IC50 [7] is on record?
**A.** 14.3 µM (active)

**Q.** Which IC50 (Vero) does the source give for `COc1cc(CNC(C)(C)CO)cc(Br)c1OCc1ccc(Cl)cc1` here?
**A.** 19.1 µM (active)

**Q.** For `O=Cc1ccc(-c2ccc(Cl)cc2Cl)[nH]1`, which EC50 [8] is on record?
**A.** > 55.7 µM (not active)

**Q.** What about the EC50 [9] of the same compound?
**A.** > 55.7 µM (not active)

**Q.** What about the IC50 [10] of the same compound?
**A.** > 100 µM (active)

**Q.** What about the CC50 [11] of the same compound?
**A.** > 40 µM (active)

**Q.** For `O=C1COc2ccc(C(=O)COC(=O)/C=C/c3ccc(Br)o3)cc2N1`, which IC50 (Genome polyprotein) is on record?
**A.** > 49.8 µM (not active)

**Q.** And the IC50 [12]?
**A.** > 4.03 µM (active)

**Q.** And the IC50 (Bcl-2-like protein 1)?
**A.** > 109 µM (not active)

**Q.** And the IC50 [13]?
**A.** 12.2 µM (active)

**Q.** And the IC50 [14]?
**A.** > 66.6 µM (inactive)

**Q.** And the IC50 [15]?
**A.** 4.57 µM (active)

**Q.** And the IC50 (Albumin)?
**A.** > 94.1 µM (inactive)

**Q.** For `O=C1Nc2ccccc2/C1=C1/Nc2ccccc2C1=O` [INDIRUBIN], which IC50 (Danio rerio) is on record?
**A.** < 0.1 µM (not active)
